Assay results reported in the NIST ThermoML archive (doi:10.1016/j.jct.2010.09.003).
Numbers after ± are expanded uncertainties.

Key:
[1] = Ring tensiometer
[2] = xn = mol fraction of the nth substance listed; details: Ring tensiometer

OCCO [1,2-ethanediol]
surface tension liquid-gas ([1]; 283.15 K): 49.27 ± 0.66 mN/m | surface tension liquid-gas ([1]; 298.15 K): 48.22 ± 0.65 mN/m | surface tension liquid-gas ([1]; 308.15 K): 47.29 ± 0.64 mN/m

OCCO [1,2-ethanediol] + CC#N
surface tension liquid-gas ([2]; 283.15 K, x2 = 0.0102): 47.92 ± 0.65 mN/m | surface tension liquid-gas ([2]; 283.15 K, x2 = 0.0202): 46.5 ± 0.63 mN/m | surface tension liquid-gas ([2]; 283.15 K, x2 = 0.0349): 44.85 ± 0.61 mN/m | surface tension liquid-gas ([2]; 283.15 K, x2 = 0.0488): 41.85 ± 0.57 mN/m | surface tension liquid-gas ([2]; 283.15 K, x2 = 0.0611): 41.1 ± 0.57 mN/m | surface tension liquid-gas ([2]; 283.15 K, x2 = 0.0851): 39 ± 0.54 mN/m | surface tension liquid-gas ([2]; 283.15 K, x2 = 0.0936): 38.18 ± 0.54 mN/m | surface tension liquid-gas ([2]; 283.15 K, x2 = 0.102): 36.99 ± 0.52 mN/m | surface tension liquid-gas ([2]; 283.15 K, x2 = 0.1141): 36.8 ± 0.52 mN/m | surface tension liquid-gas ([2]; 283.15 K, x2 = 0.126): 35.72 ± 0.51 mN/m | surface tension liquid-gas ([2]; 283.15 K, x2 = 0.1413): 34 ± 0.49 mN/m | surface tension liquid-gas ([2]; 283.15 K, x2 = 0.1561): 33.22 ± 0.48 mN/m | surface tension liquid-gas ([2]; 283.15 K, x2 = 0.1765): 32.67 ± 0.47 mN/m | surface tension liquid-gas ([2]; 283.15 K, x2 = 0.1902): 32.45 ± 0.47 mN/m | surface tension liquid-gas ([2]; 283.15 K, x2 = 0.2426): 32.01 ± 0.46 mN/m | surface tension liquid-gas ([2]; 283.15 K, x2 = 0.29): 31.75 ± 0.45 mN/m | surface tension liquid-gas ([2]; 283.15 K, x2 = 0.3379): 31.68 ± 0.45 mN/m | surface tension liquid-gas ([2]; 283.15 K, x2 = 0.3895): 31.49 ± 0.45 mN/m | surface tension liquid-gas ([2]; 283.15 K, x2 = 0.4202): 31.44 ± 0.45 mN/m | surface tension liquid-gas ([2]; 283.15 K, x2 = 0.5197): 31.05 ± 0.44 mN/m | surface tension liquid-gas ([2]; 283.15 K, x2 = 0.7564): 30.55 ± 0.43 mN/m | surface tension liquid-gas ([2]; 283.15 K, x2 = 0.9008): 30.01 ± 0.43 mN/m | surface tension liquid-gas ([2]; 298.15 K, x2 = 0.0109): 47.82 ± 0.64 mN/m | surface tension liquid-gas ([2]; 298.15 K, x2 = 0.0199): 47.46 ± 0.64 mN/m | surface tension liquid-gas ([2]; 298.15 K, x2 = 0.0361): 46.85 ± 0.63 mN/m | surface tension liquid-gas ([2]; 298.15 K, x2 = 0.072): 45.45 ± 0.62 mN/m | surface tension liquid-gas ([2]; 298.15 K, x2 = 0.0845): 44.97 ± 0.61 mN/m | surface tension liquid-gas ([2]; 298.15 K, x2 = 0.1012): 44.23 ± 0.6 mN/m | surface tension liquid-gas ([2]; 298.15 K, x2 = 0.1402): 42.7 ± 0.6 mN/m | surface tension liquid-gas ([2]; 298.15 K, x2 = 0.1599): 40.49 ± 0.56 mN/m | surface tension liquid-gas ([2]; 298.15 K, x2 = 0.1992): 40.13 ± 0.55 mN/m | surface tension liquid-gas ([2]; 298.15 K, x2 = 0.2569): 37.76 ± 0.52 mN/m | surface tension liquid-gas ([2]; 298.15 K, x2 = 0.2999): 36.35 ± 0.51 mN/m | surface tension liquid-gas ([2]; 298.15 K, x2 = 0.35): 34.9 ± 0.5 mN/m | surface tension liquid-gas ([2]; 298.15 K, x2 = 0.4345): 33 ± 1 mN/m | surface tension liquid-gas ([2]; 298.15 K, x2 = 0.4888): 32.25 ± 0.45 mN/m | surface tension liquid-gas ([2]; 298.15 K, x2 = 0.5699): 31.53 ± 0.45 mN/m | surface tension liquid-gas ([2]; 298.15 K, x2 = 0.6321): 31.01 ± 0.44 mN/m | surface tension liquid-gas ([2]; 298.15 K, x2 = 0.7099): 30.49 ± 0.43 mN/m | surface tension liquid-gas ([2]; 298.15 K, x2 = 0.7765): 30.17 ± 0.43 mN/m | surface tension liquid-gas ([2]; 298.15 K, x2 = 0.8499): 29.71 ± 0.42 mN/m | surface tension liquid-gas ([2]; 308.15 K, x2 = 0.0202): 46.45 ± 0.63 mN/m | surface tension liquid-gas ([2]; 308.15 K, x2 = 0.0349): 45.63 ± 0.62 mN/m | surface tension liquid-gas ([2]; 308.15 K, x2 = 0.0674): 43.75 ± 0.6 mN/m | surface tension liquid-gas ([2]; 308.15 K, x2 = 0.0851): 42.8 ± 0.59 mN/m | surface tension liquid-gas ([2]; 308.15 K, x2 = 0.1021): 41.75 ± 0.57 mN/m | surface tension liquid-gas ([2]; 308.15 K, x2 = 0.1568): 39.26 ± 0.54 mN/m | surface tension liquid-gas ([2]; 308.15 K, x2 = 0.1852): 37.85 ± 0.53 mN/m | surface tension liquid-gas ([2]; 308.15 K, x2 = 0.1987): 37.18 ± 0.52 mN/m | surface tension liquid-gas ([2]; 308.15 K, x2 = 0.2426): 35.5 ± 0.5 mN/m | surface tension liquid-gas ([2]; 308.15 K, x2 = 0.2976): 34.05 ± 0.48 mN/m | surface tension liquid-gas ([2]; 308.15 K, x2 = 0.4144): 31.64 ± 0.45 mN/m | surface tension liquid-gas ([2]; 308.15 K, x2 = 0.4734): 30.85 ± 0.44 mN/m | surface tension liquid-gas ([2]; 308.15 K, x2 = 0.5101): 30.41 ± 0.43 mN/m | surface tension liquid-gas ([2]; 308.15 K, x2 = 0.6453): 28.95 ± 0.42 mN/m | surface tension liquid-gas ([2]; 308.15 K, x2 = 0.7654): 28.53 ± 0.41 mN/m | surface tension liquid-gas ([2]; 308.15 K, x2 = 0.9352): 27.83 ± 0.4 mN/m

OCCO [1,2-ethanediol] + O
surface tension liquid-gas ([2]; 283.15 K, x1 = 0.0078): 73.5 ± 0.93 mN/m | surface tension liquid-gas ([2]; 283.15 K, x1 = 0.0132): 72.59 ± 0.92 mN/m | surface tension liquid-gas ([2]; 283.15 K, x1 = 0.0216): 71.19 ± 0.91 mN/m | surface tension liquid-gas ([2]; 283.15 K, x1 = 0.0334): 69.9 ± 0.89 mN/m | surface tension liquid-gas ([2]; 283.15 K, x1 = 0.0498): 68.63 ± 0.88 mN/m | surface tension liquid-gas ([2]; 283.15 K, x1 = 0.0632): 67.15 ± 0.86 mN/m | surface tension liquid-gas ([2]; 283.15 K, x1 = 0.0875): 64.99 ± 0.83 mN/m | surface tension liquid-gas ([2]; 283.15 K, x1 = 0.1152): 63.9 ± 0.82 mN/m | surface tension liquid-gas ([2]; 283.15 K, x1 = 0.1436): 62.16 ± 0.8 mN/m | surface tension liquid-gas ([2]; 283.15 K, x1 = 0.1635): 60.8 ± 0.79 mN/m | surface tension liquid-gas ([2]; 283.15 K, x1 = 0.2002): 59.26 ± 0.77 mN/m | surface tension liquid-gas ([2]; 283.15 K, x1 = 0.2509): 57.72 ± 0.75 mN/m | surface tension liquid-gas ([2]; 283.15 K, x1 = 0.2895): 56.46 ± 0.74 mN/m | surface tension liquid-gas ([2]; 283.15 K, x1 = 0.4112): 54.53 ± 0.71 mN/m | surface tension liquid-gas ([2]; 283.15 K, x1 = 0.4753): 53.16 ± 0.7 mN/m | surface tension liquid-gas ([2]; 283.15 K, x1 = 0.6668): 51.62 ± 0.68 mN/m | surface tension liquid-gas ([2]; 283.15 K, x1 = 0.7562): 50.82 ± 0.68 mN/m | surface tension liquid-gas ([2]; 283.15 K, x1 = 0.8958): 49.84 ± 0.67 mN/m | surface tension liquid-gas ([2]; 298.15 K, x1 = 0.0083): 71.18 ± 0.91 mN/m | surface tension liquid-gas ([2]; 298.15 K, x1 = 0.0144): 70.41 ± 0.9 mN/m | surface tension liquid-gas ([2]; 298.15 K, x1 = 0.0246): 69.25 ± 0.88 mN/m | surface tension liquid-gas ([2]; 298.15 K, x1 = 0.0351): 68.12 ± 0.87 mN/m | surface tension liquid-gas ([2]; 298.15 K, x1 = 0.0466): 66.95 ± 0.86 mN/m | surface tension liquid-gas ([2]; 298.15 K, x1 = 0.0556): 66.14 ± 0.85 mN/m | surface tension liquid-gas ([2]; 298.15 K, x1 = 0.0899): 63.74 ± 0.82 mN/m | surface tension liquid-gas ([2]; 298.15 K, x1 = 0.1042): 62.68 ± 0.81 mN/m | surface tension liquid-gas ([2]; 298.15 K, x1 = 0.1342): 61.16 ± 0.79 mN/m | surface tension liquid-gas ([2]; 298.15 K, x1 = 0.1624): 59.99 ± 0.78 mN/m | surface tension liquid-gas ([2]; 298.15 K, x1 = 0.1989): 58.5 ± 0.8 mN/m | surface tension liquid-gas ([2]; 298.15 K, x1 = 0.2499): 56.89 ± 0.74 mN/m | surface tension liquid-gas ([2]; 298.15 K, x1 = 0.2996): 55.65 ± 0.73 mN/m | surface tension liquid-gas ([2]; 298.15 K, x1 = 0.401): 53.63 ± 0.7 mN/m | surface tension liquid-gas ([2]; 298.15 K, x1 = 0.4999): 52.22 ± 0.69 mN/m | surface tension liquid-gas ([2]; 298.15 K, x1 = 0.65): 50.65 ± 0.67 mN/m | surface tension liquid-gas ([2]; 298.15 K, x1 = 0.75): 49.82 ± 0.66 mN/m | surface tension liquid-gas ([2]; 298.15 K, x1 = 0.8987): 48.68 ± 0.65 mN/m | surface tension liquid-gas ([2]; 308.15 K, x1 = 0.008): 69.14 ± 0.88 mN/m | surface tension liquid-gas ([2]; 308.15 K, x1 = 0.0141): 68.26 ± 0.87 mN/m | surface tension liquid-gas ([2]; 308.15 K, x1 = 0.0253): 66.81 ± 0.86 mN/m | surface tension liquid-gas ([2]; 308.15 K, x1 = 0.0353): 65.67 ± 0.84 mN/m | surface tension liquid-gas ([2]; 308.15 K, x1 = 0.0511): 64.1 ± 0.82 mN/m | surface tension liquid-gas ([2]; 308.15 K, x1 = 0.0556): 63.7 ± 0.82 mN/m | surface tension liquid-gas ([2]; 308.15 K, x1 = 0.0905): 61.09 ± 0.79 mN/m | surface tension liquid-gas ([2]; 308.15 K, x1 = 0.1113): 59.86 ± 0.78 mN/m | surface tension liquid-gas ([2]; 308.15 K, x1 = 0.1445): 58.26 ± 0.76 mN/m | surface tension liquid-gas ([2]; 308.15 K, x1 = 0.1602): 57.62 ± 0.75 mN/m | surface tension liquid-gas ([2]; 308.15 K, x1 = 0.2132): 55.84 ± 0.73 mN/m | surface tension liquid-gas ([2]; 308.15 K, x1 = 0.2485): 54.9 ± 0.72 mN/m | surface tension liquid-gas ([2]; 308.15 K, x1 = 0.3201): 53.39 ± 0.7 mN/m | surface tension liquid-gas ([2]; 308.15 K, x1 = 0.4126): 51.95 ± 0.69 mN/m | surface tension liquid-gas ([2]; 308.15 K, x1 = 0.5054): 50.84 ± 0.67 mN/m | surface tension liquid-gas ([2]; 308.15 K, x1 = 0.6501): 49.52 ± 0.66 mN/m | surface tension liquid-gas ([2]; 308.15 K, x1 = 0.7406): 48.84 ± 0.65 mN/m | surface tension liquid-gas ([2]; 308.15 K, x1 = 0.8875): 47.91 ± 0.64 mN/m
